Consider 10 compounds from patent US20220340582A1, “CANNABINOID DERIVATIVES” (CANOPY GROWTH CORPORATION, priority 2019, published 2022).

In experiment [1] the target is T1, human CB1 receptor (Homo sapiens, UniProt P21554).
T1 construct: host or cells: CHO-K1
Briefly: CB1 radioligand competitive binding assay ([3H]CP 55,940 displacement).

In experiment [2] the target is T2, human CB2 receptor (Homo sapiens, UniProt P34972).
T2 construct: host or cells: CHO-K1
The experiment is described as follows: CB2 radioligand competitive binding assay ([3H]CP 55,940 displacement). Particulars: for Selectivity CB2: fold difference between CB1 and CB2 binding, printed in the column of the receptor with the higher binding affinity. The protocol:
Compounds of the present disclosure were tested for CB1 receptor binding affinity and for CB2 receptor binding affinity. As used herein, “binding affinity” is represented by the IC50 value, which was experimentally determined as described herein. The lower the IC50 value the higher the binding affinity.
The membranes were prepared from CHO-K1 (Chinese hamster ovary) cells stably transfected with the human CB2 receptor (Cat. #ES-111-C; Perkin Elmer, Boston, Mass.). The cells were grown adherently and maintained in Ham's F12 medium containing 10% fetal bovine serum (FBS), penicillin, streptomycin and geneticin (G418) at 37° C. in a humid atmosphere of 5% CO2 following the manufacturer's instructions.
For membrane preparation the cells were washed with PBS and scraped off the plates in cold homogenization buffer (25 mM HEPES (pH 7.4), 2 mM EDTA) containing protease inhibitor cocktail (Sigma Cat. #P8340). The cell suspension was homogenized with a Pro-PK-01200D Polytron Homogenizer (Pro Scientific) and then centrifuged for 30 min at 120,000×g. The supernatant was discarded and the pellet was re-suspended in the homogenization buffer and stored at −80° C. until the time of use.
In this experiment, 3H radiolabeled CP 55,940, i.e. [3H]CP 55,940 (Perkin Elmer, Boston, Mass.), was used as a radioligand for the CB2 receptor to determine the binding affinity of compounds for the CB2 receptor (Scheme 4; above).
The competition binding experiments (single dose and dose-response) were performed by incubating 0.6 nM of [3H]CP55,940 (specific activity 101 Ci/mmol, Perkin Elmer) and different concentrations of compounds disclosed herein with membranes prepared as above from CHO-K1 cells expressing human CB2 receptor (1 μg of protein/well), 50 mM Tris-HCl (pH 7.4), 5 mM MgCl2, 1 mM CaCl2, and 2 mg/mL BSA.
For the dose-response experiments the test compounds were sequentially diluted to provide the desired concentration range for the IC50 determination. In each case the compounds were pre-incubated with the membrane for 20 min, before adding the radioligand.
After incubation with the radioligand for 60 min at 37° C., the incubation was terminated by rapid filtration of assay mixture through MultiScreen®HTS^+96-well filter plates (Millipore, Cat. #MSFCNXB), pre-soaked for 60 min with 50 mM Tris-HCl (pH 7.4) containing 0.33% polyethylenimine (PEI). The nonspecific binding (NSB) was determined in the presence of 10 μM unlabelled CP55,940. After drying the filter plate at 50° C. for at least 60 min, the filter-bound radioactivity was determined by scintillation spectrometry using the 1450 MicroBeta Plate Counter (Perkin Elmer, Boston, MA).

Where [3] appears, read: 0.8 nM [3H]CP 55,940, CHO-K1 membranes expressing human CB1 receptor, dose-response, read-out: CB1 IC50.
[4] abbreviates: 0.6 nM [3H]CP55,940, CHO-K1 membranes expressing human CB2 receptor, dose-response, read-out: CB2 IC50.

Molecules are shown by their SMILES. Like-named read-outs stand apart in the source and are kept apart here. Bounds are passed on as bounds.

T1 sequence (P21554 whole entry): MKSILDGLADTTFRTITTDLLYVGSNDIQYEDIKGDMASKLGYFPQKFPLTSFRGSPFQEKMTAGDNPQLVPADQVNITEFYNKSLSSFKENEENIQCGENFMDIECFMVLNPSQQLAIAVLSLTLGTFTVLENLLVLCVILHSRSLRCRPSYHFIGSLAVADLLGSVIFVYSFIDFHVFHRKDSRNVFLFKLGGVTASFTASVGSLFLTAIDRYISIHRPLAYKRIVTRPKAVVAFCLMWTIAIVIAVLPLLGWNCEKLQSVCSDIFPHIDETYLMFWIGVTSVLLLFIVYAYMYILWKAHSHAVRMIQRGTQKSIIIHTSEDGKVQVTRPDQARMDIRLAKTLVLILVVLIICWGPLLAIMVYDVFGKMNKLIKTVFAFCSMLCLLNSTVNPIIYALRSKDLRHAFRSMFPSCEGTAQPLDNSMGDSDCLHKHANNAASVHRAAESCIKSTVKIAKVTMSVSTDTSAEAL
T2 sequence (P34972 whole entry): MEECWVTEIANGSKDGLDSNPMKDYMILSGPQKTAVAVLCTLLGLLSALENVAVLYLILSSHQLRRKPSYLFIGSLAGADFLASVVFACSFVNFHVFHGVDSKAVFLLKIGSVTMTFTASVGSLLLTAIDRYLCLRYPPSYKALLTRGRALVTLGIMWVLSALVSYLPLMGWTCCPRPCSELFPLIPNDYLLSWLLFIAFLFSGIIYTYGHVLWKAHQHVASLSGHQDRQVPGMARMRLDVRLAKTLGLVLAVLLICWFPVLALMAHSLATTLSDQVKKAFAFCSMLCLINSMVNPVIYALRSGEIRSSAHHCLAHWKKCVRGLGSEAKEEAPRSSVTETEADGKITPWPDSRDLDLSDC

Regarding `CCCCCc1cc2c(c(O)c1C(=O)Nc1ccccc1)[C@@H]1C=C(C)CC[C@H]1C(C)(C)O2` [Compound 10b, 1-hydroxy-6,6,9-trimethyl-3-pentyl-N-phenyl-6a,7,8,10a-tetrahydro-6H-benzo[c]chromene-2-carboxamide], the IC50 in experiment [1] (setting [3]) and in experiment [2] (setting [4]) was under 100 nM each time. Moreover, the “Selectivity CB2” value in experiment [2] is reported as 8.81 fold.
Regarding `CCCc1cc2c(c(O)c1C(=O)NC)[C@@H]1C=C(C)CC[C@H]1C(C)(C)O2` [Compound 58b, 1-hydroxy-N,6,6,9-tetramethyl-3-propyl-6a,7,8,10a-tetrahydro-6H-benzo[c]chromene-2-carboxamide], the IC50 in experiment [1] was over 1000 nM. Besides, in experiment [2], the IC50 is over 1000 nM and the “Selectivity CB2” value is 6.87 fold.
In experiment [1], `CCCCCc1cc2c(c(O)c1C(=O)NC1CC1)[C@@H]1C=C(C)CC[C@H]1C(C)(C)O2` [Compound 6b, N-cyclopropyl-1-hydroxy-6,6,9-trimethyl-3-pentyl-6a,7,8,10a-tetrahydro-6H-benzo[c]chromene-2-carboxamide] yielded an IC50 of 100 to 490 nM. In experiment [2], the IC50 was under 100 nM and the “Selectivity CB2” value is recorded as 9.08 fold.
In turn, `CCCCCc1cc2c(c(O)c1C(=O)N1Cc3ccccc3C1)[C@@H]1C=C(C)CC[C@H]1C(C)(C)O2` [Compound 43b, (1-hydroxy-6,6,9-trimethyl-3-pentyl-6a,7,8,10a-tetrahydro-6H-benzo[c]chromen-2-yl)(isoindolin-2-yl)methanone] displayed an IC50 in experiment [1] of over 1000 nM. Besides, in experiment [2], the IC50 lay in the range of 100 to 490 nM and the “Selectivity CB2” value came out at 8.33 fold.
Consider `CCCCCc1cc2c(c(O)c1C(=O)N1CCN(C(C)=O)CC1)[C@@H]1C=C(C)CC[C@H]1C(C)(C)O2` [Compound 36b, 1-(4-(1-hydroxy-6,6,9-trimethyl-3-pentyl-6a,7,8,10a-tetrahydro-6H-benzo[c]chromene-2-carbonyl)piperazin-1-yl)ethan-1-one], for which the concentration for half-maximal inhibition (IC50) in experiment [1] and in experiment [2] was over 1000 nM in each case. In experiment [1] (fold difference between CB1 and CB2 binding, printed in the column of the receptor with the higher binding affinity), the “Selectivity CB1” value is given as 1.10 fold.
Take `CCCCCc1cc2c(c(O)c1C(=O)NCC)[C@@H]1C=C(C)CC[C@H]1C(C)(C)O2` [Compound 3b, N-ethyl-1-hydroxy-6,6,9-trimethyl-3-pentyl-6a,7,8,10a-tetrahydro-6H-benzo[c]chromene-2-carboxamide]: the IC50 was in the range of 500 to 990 nM in experiment [1] and 100 to 490 nM in experiment [2]. Besides, the “Selectivity CB2” value in experiment [2] was 3.33 fold.
As for `CCCCCc1cc2c(c(O)c1C(=O)N(CC)CC)[C@@H]1C=C(C)CC[C@H]1C(C)(C)O2` [Compound 50b, N,N-diethyl-1-hydroxy-6,6,9-trimethyl-3-pentyl-6a,7,8,10a-tetrahydro-6H-benzo[c]chromene-2-carboxamide], the values for the IC50 in experiment [1] and in experiment [2] were 100 to 490 nM and under 100 nM, respectively. Further, in experiment [2], the “Selectivity CB2” value is reported as 4.38 fold.
The compound `CCCCCc1cc2c(c(O)c1C(=O)N1CCCC1)[C@@H]1C=C(C)CC[C@H]1C(C)(C)O2` [Compound 41b, (1-hydroxy-6,6,9-trimethyl-3-pentyl-6a,7,8,10a-tetrahydro-6H-benzo[c]chromen-2-yl)(pyrrolidin-1-yl)methanone] registered a concentration for half-maximal inhibition (IC50) in experiment [1] of 100 to 490 nM. In experiment [2], the 50% inhibitory concentration (IC50) lay within 100 to 490 nM and the “Selectivity CB2” value came out at 2.06 fold.
On to `CCCCCc1cc2c(c(O)c1C(=O)NCc1cccnc1)[C@@H]1C=C(C)CC[C@H]1C(C)(C)O2` [Compound 15b, 1-hydroxy-6,6,9-trimethyl-3-pentyl-N-(pyridin-3-ylmethyl)-6a,7,8,10a-tetrahydro-6H-benzo[c]chromene-2-carboxamide], for which the IC50 is over 1000 nM in experiment [1] (setting [3]) and under 100 nM in experiment [2] (setting [4]). In experiment [2], the “Selectivity CB2” value stood at 19.07 fold.
Regarding `CCCCCc1cc2c(c(O)c1C(=O)N1CCOCC1)[C@@H]1C=C(C)CC[C@H]1C(C)(C)O2` [Compound 39b, (1-hydroxy-6,6,9-trimethyl-3-pentyl-6a,7,8,10a-tetrahydro-6H-benzo[c]chromen-2-yl)(morpholino)methanone], the IC50 in experiment [1] and in experiment [2] was 100 to 490 nM throughout. Further, the “Selectivity CB2” value in experiment [2] came to 1.53 fold.

As a reminder, the IC50 is the concentration that inhibits the measured activity by half.
